The values below come from PubChem BioAssay (NCI).

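Tested at 5 concentrations; 48 h exposure; 96-well plates; endpoints linearly interpolated, else capped at highest concentration. At the GI50, growth is halved. Definition used: TGI = concentration required for complete inhibition of growth.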

Test systems include DMS 273 small cell lung; XF 498 CNS; LXFL 529 NSCLC; KM20L2 colon; RXF 393 renal; SNB-78 CNS; COLO 205 colon; OVCAR-5 ovarian; M19-MEL melanoma; SK-MEL-28 melanoma; DMS 114 small cell lung; HOP-18 NSCLC; DLD-1 colon; RXF-631 renal.
Holding throughout (assay): NCI anticancer screen, dose series, 48 h

As to `Cc1ccc(S(=O)(=O)c2ccc(C)cc2[N+](=O)[O-])c([N+](=O)[O-])c1`, the TGI with DMS 273 small cell lung, in the assay on XF 498 CNS, in the assay on LXFL 529 NSCLC, with KM20L2 colon, in the assay on RXF 393 renal and in the assay with SNB-78 CNS was greater than 100 µM throughout. The TGI in the assay with COLO 205 colon, with OVCAR-5 ovarian, in the assay on M19-MEL melanoma, with SK-MEL-28 melanoma and with DMS 114 small cell lung was greater than 100 µM throughout.
As for `O=C1CCC(=O)c2ccccc2N1`, the TGI in the assay on HOP-18 NSCLC, in the assay with DMS 273 small cell lung, with XF 498 CNS, in the assay with LXFL 529 NSCLC, in the assay with KM20L2 colon and in the assay on RXF 393 renal was greater than 100 µM in each case. For the same molecule, the TGI with COLO 205 colon, with OVCAR-5 ovarian, in the assay with M19-MEL melanoma, in the assay with SK-MEL-28 melanoma, in the assay on DLD-1 colon and in the assay with DMS 114 small cell lung was greater than 100 µM each time.
As for `N#CCCC(C#N)(C#N)CCC#N`, the TGI in the assay on DMS 273 small cell lung, in the assay with XF 498 CNS, with LXFL 529 NSCLC, with KM20L2 colon, with COLO 205 colon and in the assay on M19-MEL melanoma was greater than 100 µM in each case. In addition, the TGI in the assay with SK-MEL-28 melanoma and in the assay with DMS 114 small cell lung was greater than 100 µM each time.
`COP12(OC)NC(=O)OC1(C(F)(F)F)c1ccccc1O2` (stereo unspecified): the TGI in the assay with HOP-18 NSCLC, with DMS 273 small cell lung, with XF 498 CNS, with LXFL 529 NSCLC, in the assay on RXF 393 renal and in the assay on SNB-78 CNS was greater than 100 µM in each case. Also, the TGI with M19-MEL melanoma, in the assay on SK-MEL-28 melanoma, in the assay with DLD-1 colon and in the assay with DMS 114 small cell lung was greater than 100 µM throughout.
Regarding `CN(C)CC1(Cc2ccccc2)CC/C(=C\c2ccccc2)C1=O` (stereo unspecified), the TGI with HOP-18 NSCLC was greater than 100 µM; with DMS 273 small cell lung it was greater than 100 µM; in the assay on XF 498 CNS, greater than 100 µM; with LXFL 529 NSCLC, greater than 100 µM; with KM20L2 colon, 35 µM; with RXF 393 renal, 92.8 µM. For the same molecule, the TGI in the assay on SNB-78 CNS is greater than 100 µM; in the assay on COLO 205 colon it was 89.6 µM; with OVCAR-5 ovarian, greater than 100 µM; in the assay on M19-MEL melanoma, 64.6 µM; in the assay on RXF-631 renal, 83.7 µM; in the assay with SK-MEL-28 melanoma, greater than 100 µM. The TGI was greater than 100 µM with DLD-1 colon and 80.1 µM in the assay on DMS 114 small cell lung.
Consider `CCOC(=O)/C(C1=NCCN1C)=C(\O)c1ccccc1`, for which the TGI in the assay on HOP-18 NSCLC, in the assay on XF 498 CNS, with LXFL 529 NSCLC, with KM20L2 colon, with RXF 393 renal and in the assay on SNB-78 CNS was greater than 100 µM in each case. The TGI in the assay with COLO 205 colon, in the assay on OVCAR-5 ovarian, in the assay with M19-MEL melanoma, with SK-MEL-28 melanoma and with DLD-1 colon was greater than 100 µM in each case.
Regarding `O=c1[nH]c(=O)n([C@H]2C[C@@H](CO)[C@@H](O)C2)cc1I`, the TGI in the assay with HOP-18 NSCLC, with DMS 273 small cell lung, in the assay on LXFL 529 NSCLC, with KM20L2 colon, in the assay with SNB-78 CNS and in the assay on COLO 205 colon was greater than 100 µM in each case. The TGI in the assay on OVCAR-5 ovarian, with M19-MEL melanoma, with SK-MEL-28 melanoma, in the assay on DLD-1 colon and in the assay with DMS 114 small cell lung was greater than 100 µM throughout.
`C/C=C1\Oc2ccc(OC)cc2S1(=O)=O`: the TGI in the assay with HOP-18 NSCLC, with DMS 273 small cell lung, in the assay with LXFL 529 NSCLC, with KM20L2 colon, in the assay with RXF 393 renal and in the assay with SNB-78 CNS was greater than 100 µM in each case. Besides, the TGI in the assay with COLO 205 colon, in the assay with OVCAR-5 ovarian, in the assay on M19-MEL melanoma, in the assay with SK-MEL-28 melanoma, with DLD-1 colon and in the assay with DMS 114 small cell lung was greater than 100 µM each time.
On to `O=c1cccccc1[O-].O=c1cccccc1[O-].O=c1cccccc1[O-].[Nd+3]`, for which the GI50 was 14.3 µM with DMS 273 small cell lung, 31.7 µM in the assay with KM20L2 colon, 20.6 µM in the assay on SNB-78 CNS and 36.4 µM with DLD-1 colon. Further, the TGI in the assay on DMS 273 small cell lung is greater than 100 µM; with KM20L2 colon it was greater than 100 µM; with RXF 393 renal it was 50.2 µM; in the assay on SNB-78 CNS it was greater than 100 µM; in the assay on OVCAR-5 ovarian, greater than 100 µM; in the assay on DLD-1 colon, greater than 100 µM.
As to `c1cc2c(cc1C1OCC3C(c4ccc5c(c4)OCO5)OCC13)OCO2` (stereo unspecified), the TGI was greater than 100 µM with HOP-18 NSCLC; 99.8 µM in the assay on XF 498 CNS; greater than 100 µM in the assay with LXFL 529 NSCLC; greater than 100 µM in the assay with KM20L2 colon; greater than 100 µM in the assay with RXF 393 renal; greater than 100 µM in the assay with SNB-78 CNS. Further, the TGI in the assay on COLO 205 colon, with OVCAR-5 ovarian, with M19-MEL melanoma, in the assay on SK-MEL-28 melanoma, in the assay on DLD-1 colon and in the assay on DMS 114 small cell lung was greater than 100 µM in each case.
Take `C#CN1C(=O)c2c(c(-c3ccccc3)c(-c3ccc(Oc4ccc(-c5c(-c6ccccc6)c6c(c(-c7ccccc7)c5-c5ccccc5)C(=O)N(C#C)C6=O)cc4)cc3)c(-c3ccccc3)c2-c2ccccc2)C1=O`: the TGI with DMS 273 small cell lung is greater than 100 µM; with XF 498 CNS, 72.8 µM; in the assay with KM20L2 colon it was greater than 100 µM; in the assay with RXF 393 renal, greater than 100 µM; in the assay with COLO 205 colon, greater than 100 µM; in the assay with OVCAR-5 ovarian, greater than 100 µM. The TGI in the assay on M19-MEL melanoma, in the assay on SK-MEL-28 melanoma, in the assay on DLD-1 colon and in the assay on DMS 114 small cell lung was greater than 100 µM in each case.
